These results are taken from US20060019938A1, “Estrogen administration for treating male cognitive dysfunction or improving male cognitive function” (priority 2003, published 2006).

Molecules are shown by their SMILES.

What all share (format): in vivo, human
In data set [1] the test system is men with androgen-independent prostate cancer. Kind of data set: Toxicity monitoring (thromboembolic complications) during transdermal estradiol. The note with it: 0.6 mg estradiol/day transdermal, at time of most recent analysis. How it is done:
(§1) Standard prophylactic breast irradiation was offered to all patients prior to therapy to reduce the risk of gynecomastia. Six Climara® estradiol patches (25.0 cm^2, 7.6 mg estradiol per patch) were adhered to the patients once every 7 days for a period of at least 4 weeks for a dosage of 0.6 mg estradiol/day (in vivo estradiol delivery per patch is 0.1 mg/day).
(§2) Certain cognitive functions of the patients were evaluated prior to starting estradiol treatment and approximately 4 weeks after starting estradiol treatment. Specifically, memory was assessed using immediate and delayed Paragraph Recall test and working memory was assessed using the SOP and Trails tests. Serum estradiol concentration was also measured after approximately 4 weeks of treatment, as well as other standard monitoring measurements. The Paragraph Recall test was performed as described above. The SOP test was performed as described above and was computer-administered with 8 and 10 card sets. Each card of the set was depicted on a computer screen and the subject selected the drawing for each card by pressing a corresponding number on the keyboard. The Trails test was performed as described above.

The subject of data set [2] is prostate cancer patients progressing on ADT. Kind of data set: Profile of Mood States (POMS) test, confusion subscale. The note with it: Example 2, prostate cancer patients progressing on ADT. From the text: Research subjects consisted of healthy men, and men who have been diagnosed with prostate cancer that were between the ages of 45-100. The subjects were classified into three groups: (1) Prostate cancer patients progressing on ADT and before and after starting second line therapy with transdermal estradiol as described above; (2) Prostate cancer patients continuing ADT; and (3) Age-matched healthy controls. The treatment regimen of these men was not modified as part of their participation in this study. Exclusion criteria included currently taking hormone replacement, active malignancy other than prostate cancer or non-melanoma skin cancer, major surgery within last 4 weeks, and score less than 25 on the Mini-Mental State Exam (a screening measure for dementia). The participant characteristics are shown below in Table 3.
The estradiol administration was the same as in example 1.
Mood was assessed using a Profile of Mood States (POMS) test as described in McNair et al, Profile of mood states manual (Education and Industrial Testing Service, San Diego (1971)). Participants completed the POMS test at both testing sessions (i.e., beginning of study and 4 weeks later). The scale asks participants to rate how they felt in the last week. Responses are categorized into six subscales (tension-anxiety, depression, anger, fatigue, confusion and vigor). […]

The subject of data set [3] is men with androgen-independent prostate cancer. Kind of data set: Trails working memory test. From the text: A further illustrative working memory test is known as the Trails test. This test is a dot-to-dot paper pencil test where the subject connects dots (1-2-3-4 etc.). On a second measure they connect dots but the dots are labeled alternately in letters and numbers so they have to shift their cognitive set and keep in mind where they are in each set: 1 to A to 2 to B to 3 etc. Their score is the number of seconds to complete the dot to dot. Estradiol was transdermally administered to nineteen men with androgen-independent prostate cancer following a protocol outlined below. Standard prophylactic breast irradiation was offered to all patients prior to therapy to reduce the risk of gynecomastia. […] Certain cognitive functions of the patients were evaluated prior to starting estradiol treatment and approximately 4 weeks after starting estradiol treatment. Specifically, memory was assessed using immediate and delayed Paragraph Recall test and working memory was assessed using the SOP and Trails tests. Serum estradiol concentration was also measured after approximately 4 weeks of treatment, as well as other standard monitoring measurements. […] Certain cognitive functions of the patients were evaluated at the beginning of the study and then approximately 4 weeks later. […] Verbal memory was assessed using the immediate Paragraph Recall test and working memory was assessed using the Trails tests. […]

Data set [4] can be described thus: Serum testosterone (total and free) before and after transdermal estradiol. The settings on record: Visit 2, after about 4 weeks transdermal estradiol, Example 2. From the text: Research subjects consisted of healthy men, and men who have been diagnosed with prostate cancer that were between the ages of 45-100. The subjects were classified into three groups: (1) Prostate cancer patients progressing on ADT and before and after starting second line therapy with transdermal estradiol as described above; (2) Prostate cancer patients continuing ADT; and (3) Age-matched healthy controls. The treatment regimen of these men was not modified as part of their participation in this study. […]
(§3) The monitoring was similar as described above in connection with example 1. Certain cognitive functions of the patients were evaluated at the beginning of the study and then approximately 4 weeks later. In the case of patients receiving estradiol treatments, the patients were evaluated prior to the initial estradiol and then approximately 4 weeks after starting estradiol treatment. Verbal memory was assessed using the immediate Paragraph Recall test and working memory was assessed using the Trails tests. Serum estradiol concentration was also measured after approximately 4 weeks of treatment, as well as other standard monitoring measurements.

Data set [5] has as its system men with androgen-independent prostate cancer. Kind of data set: Paragraph Recall test (immediate and delayed; long-term/verbal memory). How it is done: One illustrative declarative memory test for assessing the medial temporal lobe memory system is known as a Paragraph Recall Task. This task is a subtest of the Weschler Memory Scale—Revised. A subject is read a short story and then immediately asked to recall the story. After an approximate 30 minute retention interval, they are asked to recall the story again. The recall responses are scored for number of story items correctly recalled and there is a standard scoring system. There are two stories for each administration so the total score is the total of both stories combined; one for immediate memory; and one for delayed memory.
(§4) Estradiol was transdermally administered to nineteen men with androgen-independent prostate cancer following a protocol outlined below.
as §1, §2, §3

For data set [6] the test system is unchanged. Kind of data set: Subject Ordered Pointing (SOP) working memory test.
Excerpt: An illustrative working memory test is known as Subject Ordered Pointing (SOP). SOP is described, for example, in Janowsky et al., “Sex steroids modify working memory,” J Cogn Neuroscience 12(3):407-14, 2000 and Petrides et al., “Deficits on subject-ordered tasks after frontal- and temporal-lobe lesions in man,” Neuropsychologia 20:249-62, 1982. In general, subjects are presented with stacks of cards (6, 8, 10 or 12 cards/sets). […] The subject is to touch one drawing on each card in any order, but not touch the same drawing on subsequent cards in the set. Subjects err when they touch a drawing that had been touched on a previous card in the set. Therefore, the subject has to remember previous drawings touched while planning a future response. Subjects repeat each 6, 8, 10, and 12 card set three times. The total number of errors across all card sets is the measure of interest. […] Subjects are instructed to do the task at their own pace, and to try to not go too quickly or too slowly.
as §4, §1
as §2, with “Each card of the set was depicted on a computer screen and the subject selected the drawing for each card by pressing a corresponding number on the keyboard. The Trails test was performed as described above.” left out

Data set [7] in a line: Serum estradiol concentration during transdermal estradiol treatment. How it is done: Standard prophylactic breast irradiation was offered to all patients prior to therapy to reduce the risk of gynecomastia. Six […]® estradiol patches (25.0 cm^2, 7.6 mg estradiol per patch) were adhered to the patients once every 7 days for a period of at least 4 weeks for a dosage of 0.6 mg estradiol/day (in vivo estradiol delivery per patch is 0.1 mg/day). Certain cognitive functions of the patients were evaluated prior to starting estradiol treatment and approximately 4 weeks after starting estradiol treatment. Specifically, memory was assessed using immediate and delayed Paragraph Recall test and working memory was assessed using the SOP and Trails tests. Serum estradiol concentration was also measured after approximately 4 weeks of treatment, as well as other standard monitoring measurements. The Paragraph Recall test was performed as described above. The SOP test was performed as described above and was computer-administered with 8 and 10 card sets. Each card of the set was depicted on a computer screen and the subject selected the drawing for each card by pressing a corresponding number on the keyboard. The Trails test was performed as described above. The monitoring was similar as described above in connection with example 1. Certain cognitive functions of the patients were evaluated at the beginning of the study and then approximately 4 weeks later. In the case of patients receiving estradiol treatments, the patients were evaluated prior to the initial estradiol and then approximately 4 weeks after starting estradiol treatment. Verbal memory was assessed using the immediate Paragraph Recall test and working memory was assessed using the Trails tests. Serum estradiol concentration was also measured after approximately 4 weeks of treatment, as well as other standard monitoring measurements.

Where [8] appears, read: Example 2, prostate cancer patients progressing on ADT.
[9] abbreviates: Example 1, men with AIPC treated with estradiol.
[10] abbreviates: on estradiol vs pre-treatment, about 4 weeks.
The mark [11] stands for this setting: on estrogen, about 4 weeks, 0.6 mg estradiol/day transdermal, men with AIPC.
The mark [12] stands for this setting: on estrogen, about 4 weeks, 0.6 mg/day transdermal, data from 18 subjects.

Regarding `C[C@]12CC[C@@H]3c4ccc(O)cc4CC[C@H]3[C@@H]1CC[C@@H]2O` [Estradiol, estra-1,3,5(10)-triene-3,17β-diol], the “thromboembolic complications or other significant toxicity” value in data set [1] is “no thromboembolic complications or other significant toxicity issues”. Moreover, the “confusion (POMS, FIGS. 3 and 4)” value in data set [2] is reported as “trend for men receiving estradiol to report a decrease in confusion”. Moreover, the “working memory (Trails test, FIG. 1)” value in data set [3] (setting [8]) is reported as “did not affect working memory”. In data set [3] (on estrogen, about 4 weeks, 0.6 mg/day transdermal, data from 15 subjects), the “Trails (seconds B-A)” value came out at 69.9 s. In data set [4], the “Free T” value was 3.5 (1.9) pmol/L and the “Total T” value is reported as 9.7 (3.9) ng/dL. The long-term memory entry in data set [5] (setting [9]) was “significant improvement in their long-term memory”. Also, in data set [5] (setting [8]), the “verbal memory performance (immediate Paragraph Recall, FIG. 2)” value is recorded as “improved verbal memory performance”. Moreover, in data set [5] (setting [10]), the “delayed Paragraph Recall test score improvement” value turned out to be 27% and the “immediate Paragraph Recall test score improvement” value worked out at 19%. In data set [5] (setting [11]), the “Paragraph Recall (delay; # correct)” value is given as 18.8 # correct and the “Paragraph Recall (immediate; # correct)” value was 22.9 # correct. In addition, the “working memory (Subject-Ordered and Trails tests)” value in data set [6] (setting [9]) is “no change in working memory”. Further, in data set [6] (setting [12]), the “Subject Ordered (# of errors), 8 item” value is 6.3 # of errors and the “Subject Ordered (# of errors), 10 item” value was 7.0 # of errors. For the same compound, the “Estradiol (serum)” value in data set [7] (Visit 2, after about 4 weeks transdermal estradiol, Example 2) is reported as 428.8 (280.7) pg/mL. Further, the concentration at 1 month in data set [7] (human, serum, other: transdermal, 0.6 mg/day, 1 month of treatment, Example 1, read-out: Estradiol, mean ± 95% CI) was 0.46 ± 0.126 ng/mL. For the same compound, the concentration at 2 months in data set [7] (human, serum, other: transdermal, 0.6 mg/day, 2 months of treatment, Example 1, read-out: Estradiol, mean ± 95% CI) came to 0.371 ± 0.115 ng/mL.
